Patent US20050238685A1, “Method of binding a compound to a surface” (priority 2002, published 2005)

How the values were obtained:
[1] = Cholesterol oxidase immobilized on hydrophobin-coated glassy carbon electrode, current response to cholesterol; format: biochemical; conditions: phosphate buffer pH 7
Description: To overcome the poor solubility of cholesterol in water, the cholesterol was solubilized in isopropanol with Triton in phosphate buffer (Ropers, M.-H. et al., 2001, Phys. Chem. Chem. Phys. 3:240-245).

[2] = hydrophobin-coated glassy carbon electrode, phosphate buffer pH 7
Description: Glassy carbon electrode was coated with hydrophobin by placing the electrode in a solution of hydrophobin (100 μg/ml) and incubating for 15 minutes, after which the electrode was thoroughly rinsed with water.
The electrode, modified and functionalized with the enzyme, was placed in a three electrode system, including an Ag/AgCl reference electrode and a Pt counter electrode, using phosphate buffer pH 7 (25 mM).
The modified electrode was stored in a sealed container, not in liquid, at 4° C., and tested frequently for activity and response to glucose.

[3] = Glucose oxidase and peroxidase immobilized on hydrophobin-coated TEFLON sheets, o-dianisidine colour assay at 435 nm; format: biochemical; conditions: hydrophobin-coated TEFLON sheet (SC3, trSC3, SC4), partner enzyme in solution
Description: The coating was achieved by incubating the TEFLON™ at 25° C. in 2 ml of a 100 μg/ml hydrophobin solution (here SC3, trSC3 and SC4 were used in separate experiments) in a 3 ml glass vial for 15 minutes. The sheets were removed from the hydrophobin solution and were washed with large amounts of water to remove any unbound hydrophobin.
Both sheets were placed in a container containing o-dianisidine and, upon addition of glucose, the solution became colored.
The functionalized TEFLON™ is still active after storage for several weeks at 4° C.

[4] = Different enzymes immobilized via SC3 hydrophobin on TEFLON, spectrophotometry at 412 and 435 nm; format: biochemical; conditions: SC3-coated TEFLON
Description: The surface was first coated with SC3 hydrophobin by immersion in the protein aqueous solution (0.3 mg/mL) during approximately 30 minutes. The obtained modified surface was then immersed in an aqueous enzyme solution during approximately 30 minutes. After each step, the TEFLON™ surface was rinsed with an adequate buffer solution. Activity of the immobilized enzymes was followed by spectrophotometry at 412 and 435 nm after immersion of the functionalized surface in the corresponding substrate solution. The optical density of the solution increases after the immersion of the functionalized surface and stays constant after its removal. […] The functionalized TEFLON® was stored at 4° C. in an Eppendorf tube containing a buffer solution.
(Biocatalysts, Wales; final concentration 2.1 mg/mL), lipase from Candida cylindracea (Biocatalysts, Wales; final concentration 0.25 mg/mL), porcine liver esterase (SIGMA; 41 U/mg of solid, final concentration 2.4 mg/mL), bovine pancreas trypsin (SIGMA; 8,750 U/mg of solid).

Substance: cholesterol oxidase
- activity of immobilized cholesterol oxidase [1]: remaining active

Substance: firefly luciferase: firefly luciferase (Roche, cat no. 411523)
- activity of enzyme attached to bare wells: not active

Substance: glucose oxidase
- activity of glucose oxidase upon immobilization on the hydrophobin layer [2]: remained active
- activity of immobilized enzyme (oxidation of o-dianisidine upon addition of glucose) [3]: absorption at 435 nm was observed

Substance: peroxidase: horseradish peroxidase (SIGMA)
- activity of immobilized enzyme (oxidation of o-dianisidine upon addition of glucose) [3]: Coloring of the solution
- state of immobilized enzymes (denaturation, desorption) [4]: not denatured and are not desorbed from the surface
- function after storage ([4]; 4° C. in buffer solution): still functional after several weeks
